Source: paper PMC3688767, “Lipoprotein FtsB in Streptococcus pyogenes Binds Ferrichrome in Two Steps with Residues Tyr137 and Trp204 as Critical Ligands” (PLoS ONE, 2013)
Several values for one entry are separate records, joined by “and”; a condition that tells them apart may be missing. Equal values may be shown once. Square brackets hold non-standard residues; d marks the D form. Peptide text beside a SMILES is read from it. Orn(N5-OH,N5-Ac) = CC(=O)N(O)CCC[C@H](N)C(=O)O

What was measured:
WT FtsB [1] = molecular target: T1, WT FtsB (Streptococcus pyogenes, UniProt Q9A198); assay: Fluorescence quenching titration of ferrichrome binding, Hill plot
Description: (§1) The interaction between FtsB and Fch was investigated in a fluorescence spectroﬂuorimeter (Hitachi F7000), in which the excitation wavelength was 280 nm (slit width of 2.5 nm) and the emission wavelength was between 290 and 500 nm (slit width of 10 nm). Aliquots of Fch (1 mM stock solution) were gradually added to 1 mL FtsB solution (1.5 µM, in 20 mM Tris–HCl, pH 7.2). Fluorescence spectra were collected after each titration until the spectra were stable. The data were analyzed with Hill plot in Origin 7.5 to acquire the binding capability and dissociation constant (K d). pH dependent Fch binding with FtsB was also examined in the same buffer with pH 3.2–9.2.

[2] = molecular target: T2, FtsB Tetra mutant E120A/Y137A/W204A/Y287A (Streptococcus pyogenes, UniProt Q9A198, E120A/W204A/Y137A/Y287A); assay: as above; conditions: 20 mM Tris-HCl, pH 7.2, may be no-specific interaction, read-out: Dissociation constant K d
T2 sequence (Q9A198 21-310 E120A/Y137A/W204A/Y287A): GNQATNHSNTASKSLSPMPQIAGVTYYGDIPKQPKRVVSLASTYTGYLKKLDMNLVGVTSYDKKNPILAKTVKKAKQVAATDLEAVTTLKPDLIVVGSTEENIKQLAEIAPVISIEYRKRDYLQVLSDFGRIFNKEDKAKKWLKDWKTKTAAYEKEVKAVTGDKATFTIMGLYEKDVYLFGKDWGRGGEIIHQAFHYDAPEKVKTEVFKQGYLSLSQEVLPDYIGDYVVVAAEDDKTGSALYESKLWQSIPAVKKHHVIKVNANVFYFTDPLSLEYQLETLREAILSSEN
Description: (§2) E120A, Y137A, W204A and Y287A mutants were constructed by QuikChange mutagenesis kit (Stratagene) with the wild-type ftsb plasmid as a template, using primers summarized in Table 1. To further study the collective contribution of Glu120, Tyr137, Trp204 and Tyr287 to the Fch binding of FtsB, a tetra-point mutation E120A/Y137A/W204A/Y287A was produced by mutating these four amino acids to alanine simultaneously. The PCR reactions were performed as follows: denaturation at 95°C for 30 s, followed by 16 cycles with denaturation at 95°C for 30 s, annealing at 55°C for 1 min, and extension at 68°C for 6 min [14]. The mutant plasmids were transformed into E. coli XL1-blue for sequencing (Invitrogen). The mutant plasmid with correct sequence was transformed into E. coli BL21 (DE3) star competent cells for subsequent expression. Expression and purification of the FtsB mutants were carried out by following the same protocol as for the wild-type protein.
as §1

FtsB mutant E120A = molecular target: T3, FtsB mutant E120A (Streptococcus pyogenes, UniProt Q9A198, E120A); assay: as above; conditions: 20 mM Tris-HCl, pH 7.2, read-out: Dissociation constant K d
T3 sequence (Q9A198 21-310 E120A): T2 sequence (Q9A198 21-310 E120A/Y137A/W204A/Y287A)
Description: as §2, §1

FtsB mutant W204A = molecular target: T4, FtsB mutant W204A (Streptococcus pyogenes, UniProt Q9A198, W204A); assay: as above
T4 sequence (Q9A198 21-310 W204A): T2 sequence (Q9A198 21-310 E120A/Y137A/W204A/Y287A)
Description: as §2, §1

FtsB mutant Y137A [3] = molecular target: T5, FtsB mutant Y137A (Streptococcus pyogenes, UniProt Q9A198, Y137A); assay: as above
T5 sequence (Q9A198 21-310 Y137A): T2 sequence (Q9A198 21-310 E120A/Y137A/W204A/Y287A)
Description: as §2, §1

FtsB mutant Y287A = molecular target: T6, FtsB mutant Y287A (Streptococcus pyogenes, UniProt Q9A198, Y287A); assay: as above; conditions: 20 mM Tris-HCl, pH 7.2, read-out: Dissociation constant K d
T6 sequence (Q9A198 21-310 Y287A): T2 sequence (Q9A198 21-310 E120A/Y137A/W204A/Y287A)
Description: as §2, §1

FtsB mutant Y137A [4] = molecular target: T5, FtsB mutant Y137A; assay: Stopped-flow fluorescence binding kinetics; conditions: Y137A 10 µM mixed with Fch 1∶1, 25°C, pH 7.2, first-order exponential fit; listed as Fch
Description: (§3) Binding kinetics experiments were carried out using a stopped-ﬂow ﬂuorescence spectrometer (Applied Photophysics, SX200) at 25°C. The excitation wavelength was 280 nm and the ﬂuorescence emission was measured using a high-pass filter with a 320 nm cutoff. Binding reaction was initiated by mixing 10 µM FtsB in 20 mM Tris-HCl (pH 7.2) with Fch in a 1∶1 ratio. Kinetics experiments were performed 5 times, and data were analyzed with a second-order or first-order exponential function offered by Origin 7.5 software.

WT FtsB [5] = molecular target: T1, WT FtsB; assay: Stopped-flow fluorescence binding kinetics; conditions: WT FtsB 10 µM mixed with Fch 1∶1, 25°C, pH 7.2, second-order exponential fit; listed as Fch
Description: as §3

CC(=O)N([O-])CCC[C@@H]1NC(=O)CNC(=O)CNC(=O)CNC(=O)[C@H](CCCN([O-])C(C)=O)NC(=O)[C@H](CCCN([O-])C(C)=O)NC1=O.[Fe+3] [ferrichrome, Ferrichrome] (cyclo(GGG[Orn(N5-OH,N5-Ac)][Orn(N5-OH,N5-Ac)][Orn(N5-OH,N5-Ac)]))
Kd (WT FtsB [1]; WT FtsB 1.5 µM, 20 mM Tris-HCl, pH 7.2, read-out: Dissociation constant K d): 400 ± 20 nM | pH of maximal binding (WT FtsB [1]; pH dependence examined at pH 3.2–9.2): 7.2 | Kd [2]: 43.9 ± 2.5 µM | Kd (FtsB mutant E120A): 520 ± 30 nM | folds higher K d in comparison with WT (FtsB mutant W204A; W204A mutant vs WT FtsB): 10–20 folds | Kd (FtsB mutant W204A; W204A mutant, 20 mM Tris-HCl, pH 7.2, read-out: Dissociation constant K d): 7.05 ± 0.08 µM | folds higher K d in comparison with WT (FtsB mutant Y137A [3]; Y137A mutant vs WT FtsB): 10–20 folds | Kd (FtsB mutant Y137A [3]; Y137A mutant, 20 mM Tris-HCl, pH 7.2, read-out: Dissociation constant K d): 3.7 ± 0.1 µM | Kd (FtsB mutant Y287A): 520 ± 20 nM | rate constant k (FtsB mutant Y137A [4]): 191.6 ± 7.6 s⁻¹ and 191 s⁻¹ | fast rate constant k1 (WT FtsB [5]): 180.2 ± 5.4 s⁻¹ and 180 s⁻¹ | slow rate constant k2 (WT FtsB [5]): 18.7 ± 1.3 s⁻¹
